Article PMC8952364, “Polyphenols as Inhibitors of Antibiotic Resistant Bacteria—Mechanisms Underlying Rutin Interference with Bacterial Virulence” (Pharmaceuticals, 2022)
Where two headings read alike, the source gives them in different places.

Experiments:
MRSA T144 = system: MRSA T144; design: method as in PMID 31385700; conditions: cited from earlier work
A. xylosoxidans 37F = assay: Antimicrobial microdilution assay (MIC/MBC); assay type: cell-based, Achromobacter xylosoxidans; conditions: Achromobacter xylosoxidans, 37F; for MIC: 37 °C, 24 h, read-out: MIC; for MBC: subcultivation, 24 h at 37 °C, read-out: MBC
Description: (§1) The bacterial suspension (0.5 Mc Farland) was prepared, and twenty-fold dilutions of these suspensions were mixed in a 1:10 ratio with the corresponding polyphenol dilution (0.0039–1 mg/mL). Microtiter plates were incubated at 37 °C for 24 h. The lowest concentrations without visible growth (under a binocular microscope) were defined as MICs. The bactericidal concentrations (MBCs) were determined by serial subcultivation of 2 μL of the well’s content and further incubation for 24 h at 37 °C. Streptomycin (SigmaAldrich, Darmstadt, Germany) was used as a positive control. The polyphenols were obtained from Extrasynthese, Rhone, France (rutin, isoquercitrin) and SigmaAldrich, Germany (hesperetin, hesperidin, naringenin, naringin, taxifolin, morin, chlorogenic acid, ferulic acid, p-coumaric acid, and gallic acid). The stock compounds were prepared in ethanol (30%), and adequate ethanol concentrations were used as the negative control in the assays. Experiments were done in triplicate.

A. baumannii S2/2 = assay: Antimicrobial microdilution assay (MIC/MBC); assay type: cell-based, Acinetobacter baumannii; conditions: Acinetobacter baumannii, S2/2; for MIC: 37 °C, 24 h, read-out: MIC; for MBC: subcultivation, 24 h at 37 °C, read-out: MBC
Description: as §1

A. baumannii 6077/12 = assay: Antimicrobial microdilution assay (MIC/MBC); assay type: cell-based, Acinetobacter baumannii; conditions: Acinetobacter baumannii, 6077/12; for MIC: 37 °C, 24 h, read-out: MIC; for MBC: subcultivation, 24 h at 37 °C, read-out: MBC
Description: as §1

E. coli IBRS E003 = assay: Antimicrobial microdilution assay (MIC/MBC); assay type: cell-based, Escherichia coli; conditions: Escherichia coli, IBRSE003; for MIC: 37 °C, 24 h, read-out: MIC; for MBC: subcultivation, 24 h at 37 °C, read-out: MBC
Description: as §1

E. coli IMD989 = assay: Antimicrobial microdilution assay (MIC/MBC); assay type: cell-based, Escherichia coli; conditions: Escherichia coli, IMD989; for MIC: 37 °C, 24 h, read-out: MIC; for MBC: subcultivation, 24 h at 37 °C, read-out: MBC
Description: as §1

HaCaT cells = assay: Cytotoxicity in HaCaT cell line (crystal violet assay); assay type: cell-based, human; conditions: Homo sapiens; HaCaT, 24 h treatment, crystal violet; read-out: IC50 (compound concentration that inhibited 50% of the cell growth)
Description: For determination of the polyphenols’ cytotoxic effect, a crystal violet assay was used, with modifications. The cytotoxic effect of polyphenols was analyzed on spontaneously immortalized human skin keratinocytes (HaCaT, AddexBio No. T0020001, San Diego, CA, USA) cell lines. […] Cells (1 × 10^4 cells/well) were seeded in a 96-well plate (Sarstedt, Nümbrecht, Germany) 24 h before treatment. […] Cells were incubated with the compounds for 24 h. […] After crystal violet was removed, the plates were washed in a stream of tap water and left to air-dry at room temperature for 24 h. The absorbance was measured in a microplate reader (Multiskan™ FC Microplate Photometer, Thermo Scientific™) at 590 nm. The results were expressed as IC50 value in μg/mL. The criterion used to categorize the cytotoxic activity polyphenols was as follows: […] All analyses were performed in triplicate; each replicate was also quantified three times. Data were expressed as mean standard deviation, where applicable.

S. infantis 1371/1 = assay: Antimicrobial microdilution assay (MIC/MBC); assay type: cell-based, Salmonella Infantis; conditions: Salmonella enterica, 1371/1; for MIC: 37 °C, 24 h, read-out: MIC; for MBC: subcultivation, 24 h at 37 °C, read-out: MBC
Description: as §1

[1] = system: Methicillin resistant S. aureus IBRS MRSA 011; assay: Antimicrobial microdilution assay (MIC/MBC); assay type: cell-based, Staphylococcus aureus; conditions: for MBC: subcultivation, 24 h at 37 °C, read-out: MBC
Description: as §1

K. pneumoniae Ni9 = assay: Antimicrobial microdilution assay (MIC/MBC); assay type: cell-based, Klebsiella pneumoniae; conditions: Klebsiella pneumoniae, NI9; for MIC: 37 °C, 24 h, read-out: MIC; for MBC: subcultivation, 24 h at 37 °C, read-out: MBC
Description: as §1

K. pneumoniae IT977 = assay: Antimicrobial microdilution assay (MIC/MBC); assay type: cell-based, Klebsiella pneumoniae; conditions: Klebsiella pneumoniae, IT977; for MIC: 37 °C, 24 h, read-out: MIC; for MBC: subcultivation, 24 h at 37 °C, read-out: MBC
Description: as §1

P. aeruginosa IBRS P001 = assay: Antimicrobial microdilution assay (MIC/MBC); assay type: cell-based, Pseudomonas aeruginosa; conditions: Pseudomonas aeruginosa, IBRSP001; for MIC: 37 °C, 24 h, read-out: MIC; for MBC: subcultivation, 24 h at 37 °C, read-out: MBC
Description: as §1

P. aeruginosa MMA83 = assay: Antimicrobial microdilution assay (MIC/MBC); assay type: cell-based, Pseudomonas aeruginosa; conditions: Pseudomonas aeruginosa, MMA83; for MIC: 37 °C, 24 h, read-out: MIC; for MBC: subcultivation, 24 h at 37 °C, read-out: MBC
Description: as §1

[2] = system: eleven antibiotic resistant strains of bacteria; assay: Antimicrobial assay, summary over the examined strains; assay type: cell-based; conditions: antibiotic resistant strains of Table 1; read-out: lowest MIC among the examined strains
Description: as §1

[3] = system: P. aeruginosa IBRS P001 biofilm; assay: Crystal violet antibiofilm assay (biofilm formation); assay type: cell-based, Pseudomonas aeruginosa; conditions: MIC and sub-MIC, 24 h, crystal violet, Figure 1
Description: After incubation, each well was washed twice with sterile PBS (phosphate-buffered saline, pH 7.4) and fixed with methanol for 10 min. After removal of methanol the plate was air-dried. The biofilm was stained with 0.1% crystal violet (Bio-Merieux, Marcy l’Etoile, France) for 30 min. The plate was washed with water, air dried, and the stain was dissolved with 200 μL of 96% ethanol (Zorka, Sabac, Serbia). The absorbance was read at 620 nm on a Multiskan™ FC microplate photometer (Thermo Scientific™, Waltham, MA, USA). The results are presented as biofilm forming capacity (%) compared to control.

S. aureus USA300 = system: S. aureus USA300; design: method as in PMID 34295320; conditions: methicillin resistant strain; cited from earlier work
[4] = Staphylococcus aureus, MRSA, 37 °C, 24 h, read-out: MIC

O=c1c(O)c(-c2ccc(O)cc2O)oc2cc(O)cc(O)c12 [Morin, morin]
500 µg/mL: MIC (A. xylosoxidans 37F) | MIC (A. baumannii S2/2) | MBC (A. baumannii S2/2) | MIC (A. baumannii 6077/12) | MBC (A. baumannii 6077/12) | MBC (E. coli IBRS E003) | MIC (K. pneumoniae Ni9)
250 µg/mL: MIC (E. coli IBRS E003) | MBC ([1]; Staphylococcus aureus, MRSA) | MBC (P. aeruginosa IBRS P001)
125 µg/mL: MIC ([1]; Staphylococcus aureus, MRSA, restated in the discussion, read-out: MIC)
> 1000 µg/mL: MIC (E. coli IMD989) | MBC (E. coli IMD989) | MIC (S. infantis 1371/1) | MBC (S. infantis 1371/1) | MIC (K. pneumoniae IT977) | MBC (K. pneumoniae IT977)
1000 µg/mL: MBC (A. xylosoxidans 37F) | MBC (K. pneumoniae Ni9) | MIC (P. aeruginosa MMA83) | MBC (P. aeruginosa MMA83)
32 µg/mL: MIC (MRSA T144)
120 µg/mL: MIC [1, 4] | MIC (P. aeruginosa IBRS P001)
347 ± 16 µg/mL: IC50 (HaCaT cells)

O=C1c2c(O)cc(O)cc2OC(c2ccc(O)c(O)c2)C1O (stereo not shown) [Taxifolin, taxifolin]
500 µg/mL: MIC (A. baumannii S2/2) | MBC (A. baumannii S2/2) | MIC (A. baumannii 6077/12) | MIC (E. coli IBRS E003) | MBC ([1]; Staphylococcus aureus, MRSA) | MBC (P. aeruginosa IBRS P001)
250 µg/mL: MIC [2] | MIC ([1]; 37 °C, 24 h) | MIC [1, 4] | MIC (P. aeruginosa IBRS P001)
> 1000 µg/mL: MIC (S. infantis 1371/1) | MBC (S. infantis 1371/1) | MIC (K. pneumoniae IT977) | MBC (K. pneumoniae IT977) | MBC (P. aeruginosa MMA83)
512 µg/mL: MIC (S. aureus USA300)
495 ± 47 µg/mL: IC50 (HaCaT cells)
1000 µg/mL: MIC (A. xylosoxidans 37F) | MBC (A. xylosoxidans 37F) | MBC (A. baumannii 6077/12) | MBC (E. coli IBRS E003) | MIC (E. coli IMD989) | MBC (E. coli IMD989) | MIC (K. pneumoniae Ni9) | MBC (K. pneumoniae Ni9) | MIC (P. aeruginosa MMA83)
not significantly altered: reduction of biofilm formation (biomass), in words [3]
